Source: patent US9227955B2, “Compound having angiogenesis inhibitory activity, method for preparing same, and pharmaceutical composition comprising same” (Boryung Pharmaceutical Co., Ltd., priority 2011, dated 2016)
Marks after values point to notes of the source that are not given here.

Columns and labels:
[1] = Cell viability MTS assay (cytotoxicity); type: cell-based; conditions: human; A-431 cells, 48 hrs incubation; read-out: IC50, MTS assay for cytotoxicity against A-431
Experimental: A-431 ([…], human, ATCC CRL-1555™) cells grown in DMEM (Dulbeco's Modified Eagle's Medium, Gibco #11885) were seeded at a density of 1×10^4 cells/well into 96-well plates and incubated at 37° C. for 18 hrs under the supply of 5% CO2 until the cells stably adhered to the bottom. […] After incubation for 48 hrs in the presence of the test compound, the cells were assayed for viability.
The cells in each well was added with 21 μl of a mixture of 20:1 (v/v) of an MTS solution [(3-(4,5-dimethylthiazol-2-yl)-5-(3-carboxymethoxyphenyl)-2-(4-sulfophenyl)-2H-tetrazolium, Promega, Cat#65421; 2 mg/ml] and a PMS solution [Phenazine methosulfate, Sigma #P9625; 1 mg/ml], and incubated for 2 hrs, followed by measuring absorbance at 490 nm on a microplate reader (Molecular device, spectraMax M2). Relative to the control (media), viability by drug concentration was determined from the measurements of formazan, and the results are given in Table 2, below.

[2] = system: HUVECs (human umbelical vein endothelial cells); assay: Transwell assay, VEGF-induced cell migration in HUVECs; type: cell-based; conditions: 10 ng/ml VEGF 24 hrs, n=3
Experimental: To examine the inhibitory effect of the compounds obtained in the Examples on VEGF (Vascular endothelial growth factor)-induced cell migration in HUVECs (human umbelical vein endothelial cells), a transwell assay was performed as follows.
HUVECs, provided from ATCC (American Type Culture Collection), were incubated in EGM-2 (Endothelial growth Medium-2 Medium) including 10% FBS, penicillin (100 unit/ml) and 100 μg/ml streptomycin sulfate plus various growth factors at 37° C. in an atmosphere of 5% CO2. After the change of the medium with growth factor-free EBM-2 (Endothelial Basal Medium-2 Medium), the cells were subjected to transwell assay.
After for 24 hours, the cells were fixed for 1 min with ethanol and were stained with a dye. Cell migration was evaluated by counting cells which moved through the pores.
In addition, cells were treated with Compound No. 250 (Example 26) at various concentrations given in Table 3, and assayed for cell migration, as conducted with Compounds 103, 110, 218, 273, 275, 276, 290, 312, 428, 442, and 509. The results were compared with those obtained after non-treatment (no treat) or treatment with 10 ng/mL VEGF.
Results were expressed as average numbers (n=3) of HUVECs which moved cross the membrane. Test results are summarized in Table 3 for compounds 103, 110, 218, 273, 275, 276, 290, 312, 428, 442, and 509, and in Table 4 for compound 250.

| SMILES | IC50 at 48 h [1] | No. of migration cells/field ([2]; 50 μM) | No. of migration cells/field ([2]; 25 μM) |
| --- | --- | --- | --- |
| O=C(Nc1cccc(Cl)c1)c1cccnc1SC1CCN(Cc2ccccc2)CC1 [Compound 290, 2-(1-Benzylpiperidin-4-ylsulfanyl)-N-(3-chlorophenyl)nicotinamide] | 54.8 µM | 14.5*** cells/field | – |
| CC(C)(C)OC(=O)N1CCC(Nc2ncccc2C(=O)Nc2cccc(Cl)c2)CC1 [Compound 208, N-(3-Chlorophenyl)-2-(1-tert-butoxycarbamoylpiperidin-4-ylamino)nicotinamide] | 86.1 µM | – | – |
| O=C(Nc1cccc(Cl)c1)c1cccnc1NN1CCN(CCO)CC1 [Compound 241, N-(3-Chlorophenyl)-2-[4-(2-hydroxyethyl)piperazin-1-ylamino)nicotinamide] | 164 µM | – | – |
| COC(=O)c1c(NC(=O)c2cccnc2NC2CCN(Cc3ccccc3)CC2)sc2c1CCNC2 [Compound 442, 2-{[2-(1-Benzylpiperidin-4-ylamino)pyridine-3-carbonyl]amino}-4,5,6,7-tetrahydro-thieno[2,3-c]pyridine-3-carboxylic acid methyl ester] | – | – | 15*** cells/field |
| O=C(Nc1cccc(Cl)c1)c1cccnc1N[C@@H]1CCCNC1 [Compound 269, (R)—N-(3-chlorophenyl)-2-(3-piperidylamino)nicotinamide] | 88.9 µM | – | – |
| COC(=O)c1c(NC(=O)c2cccnc2NC2CCCN(Cc3ccccc3)C2)sc2c1CCNC2 (centres unmarked) [Compound 509, 2-{[2-(1-benzylpiperidin-3-ylamino)pyridine-3-carbonyl]amino}-4,5,6,7-tetrahydrothieno[2,3-c]pyridine-3-carboxylic acid methyl ester] | – | – | 7*** cells/field |
| CC1(C)CC(Nc2ncccc2C(=O)Nc2cccc(Cl)c2)CC(C)(C)N1CCO [Compound 242, N-(3-Chlorophenyl)-2-(1-(2-hydroxyethyl)-2,2,6,6-tetramethylpiperidin-4-ylamino)nicotinamide] | 81.9 µM | – | – |
| O=C(Nc1cccc(Cl)c1)c1cccnc1NC1CCN(C(C(=O)O)C(=O)O)CC1 [Compound 246, 2-(4-(3-(3-Chlorophenylcarbamoyl)pyridin-2-ylamino)piperidin-1-yl)maloic acid] | 101 µM | – | – |
| O=C(Nc1ccc(Oc2ccccc2)cc1)c1cccnc1NC1CCN(Cc2ccccc2)CC1 [Compound 110, 2-(1-Benzylpiperidin-4-ylamino)-N-(4-phenoxyphenyl)nicotinamide] | 22.2 µM | – | 10*** cells/field |
| O=C(Nc1cccc(Cl)c1)c1cccnc1N[C@H]1CCCN(Cc2ccccc2)C1 [Compound 273, (S)-2-(1-benzylpiperidin-3-ylamino)-N-(3-chlorophenyl)nicotinamide] | 40.9 µM | 12*** cells/field | – |
| C=CCN1CCC(Nc2ncccc2C(=O)Nc2cccc(Cl)c2)CC1 [Compound 243] | 170 µM | – | – |
| CCN(CC)CCN1CCC(Nc2ncccc2C(=O)Nc2cccc(Cl)c2)CC1 [Compound 244, N-(3-chlorophenyl)-2-[1-(2-N,N-diethylamino-ethyl)piperidin-4-ylamino]nicotinamide] | 94.6 µM | – | – |
| O=C(Nc1ccc(Oc2ccccc2)cc1)c1cccnc1Nc1ccc(Oc2ccccc2)cc1 [Compound 111, 2-(4-Phenoxyanilino)-N-(4-phenoxyphenyl)nicotinamide] | 135 µM | – | – |
| O=C(NC(Cc1ccccc1)c1ccccc1)c1cccnc1NC1CCN(Cc2ccccc2)CC1 (centres unmarked) [Compound 426, 2-(1-Benzylpiperidin-4-ylamino)-N-(1,2-diphenylethyl)nicotinamide] | 39.7 µM | – | – |
| O=C(Nc1cccc(Cl)c1)c1ccc(Cl)nc1NC1CCN(CCO)CC1 [Compound 311] | 62.3 µM | – | – |
| CC(C)(C)OC(=O)N1CCC[C@H](Nc2ncccc2C(=O)Nc2cccc(Cl)c2)C1 [Compound 276, (S)—N-(3-chlorophenyl)-2-(1-tert-butoxycarbamoylpiperidin-3-ylamino)nicotinamide] | – | 12.5*** cells/field | – |

| SMILES | IC50 at 48 h [1] | No. of migration cells/field ([2]; 50 μM) | No. of migration cells/field ([2]; 25 μM) |
| --- | --- | --- | --- |
| Cc1cnc(NC(=O)c2cccnc2NC2CCN(Cc3ccccc3)CC2)s1 [Compound 428, 2-(1-Benzylpiperidin-4-ylamino)-N-(5-methylthiazol-2-yl)nicotinamide] | 125 µM | – | 14.5*** cells/field |
| CCCCC(CC)CNC(=O)c1cccnc1NC1CC(C)(C)NC(C)(C)C1 (centres unmarked) [Compound 517, N-(2-ethylhexyl)-2-(2,2,6,6-tetramethylpiperidin-4-ylamino)nicotinamide] | 50.7 µM | – | – |
| CCCCC(CC)CNC(=O)c1cccnc1NC1CCN(Cc2ccccc2)CC1 (centres unmarked) [Compound 436, 2-(1-Benzylpiperidin-4-ylamino)-N-(2-ethylhexyl)nicotinamide] | 34 µM | – | – |
| CC1(C)CC(Nc2ncccc2C(=O)Nc2cccc(Cl)c2)CC(C)(C)N1 [Compound 201, N-(3-Chlorophenyl)-2-(2,2,6,6-tetramethylpiperidin-4-ylamino)nicotinamide] | 54.5 µM | – | – |
| O=C(Nc1cccc(Cl)c1)c1cc(F)c(Cl)nc1NC1CCN(Cc2ccccc2)CC1 [Compound 302, 2-(1-benzylpiperidin-4-ylamino)-6-chloro-N-(3-chlorophenyl)-5-fluoronicotinamide] | 38.1 µM | – | – |
| O=C(Nc1cccc(Cl)c1)c1cccnc1N[C@H]1CCCNC1 [Compound 275, (S)—N-(3-chlorophenyl)-2-(3-piperidylamino)nicotinamide] | 94.6 µM | 11*** cells/field | – |
| O=C(Nc1cccc(Cl)c1)c1cc(F)c(Cl)nc1NC1CCN(CCO)CC1 [Compound 312, 6-chloro-N-(3-chlorophenyl)-5-fluoro-2-[1-(2-hydroxyethyl)piperidin-4-ylamino]nicotinamide] | 20.7 µM | 14*** cells/field | – |
| O=C(Nc1cccc(Cl)c1)c1cccnc1Nc1ccc(Oc2ccccc2)cc1 [Compound 104, N-(3-Chlorophenyl)-2-(4-phenoxyanilino)nicotinamide] | 28.6 µM | – | – |
| O=C(Nc1cccc(Cl)c1)c1ccc(Cl)nc1NC1CCN(Cc2ccccc2)CC1 [Compound 301, 2-(1-Benzylpiperidin-4-ylamino)-6-chloro-N-(3-chlorophenyl)nicotinamide] | 67.6 µM | – | – |
| CCCCC(CC)CNC(=O)c1ccc(Cl)nc1NC1CCN(CCO)CC1 (centres unmarked) [Compound 515, 6-Chloro-N-(2-ethylhexyl)-2-[1-(2-hydroxyethyl)piperidin-4-ylamino]nicotinamide] | 23.8 µM | – | – |
| O=C(Nc1cccc(Cl)c1)c1cccnc1N[C@@H]1CCCN(Cc2ccccc2)C1 [Compound 267, (R)-2-(1-benzylpiperidin-3-ylamino)-N-(3-chlorophenyl)nicotinamide] | 20.9 µM | – | – |
| O=C(Nc1cccc(Cl)c1)c1cccnc1NC1CCN(Cc2cccnc2)CC1 [Compound 249, N-(3-chlorophenyl)-2-[1-(pyridin-3-ylmethyl)piperidin-4-ylamino]nicotinamide] | 102 µM | – | – |
| CC1(C)CNc2cc(NC(=O)c3cccnc3NC3CCN(Cc4ccccc4)CC3)ccc21 [Compound 117, 2-(1-Benzylpiperidin-4-ylamino)-N-(3,3-dimethyl-2,3-dihydro-1H-indol-6-yl)nicotinamide] | 91.1 µM | – | – |
| O=C(Nc1cccc(Cl)c1)c1cccnc1N[C@H]1CCCN(CCO)C1 [Compound 274, (S)—N-(3-chlorophenyl)-2-[1-(2-hydroxyethyl)piperidin-3-ylamino]nicotinamide] | 111 µM | – | – |
| COc1ccc(NC(=O)c2cccnc2NC2CCN(Cc3ccccc3)CC2)cc1OC [Compound 443, 2-(1-Benzylpiperidin-4-ylamino)-N-(3,4-dimethoxyphenyl)nicotinamide] | 140 µM | – | – |
| O=C(Nc1cccc(Cl)c1)c1cccnc1NC1CCN(CCO)CC1 [Compound 218, N-(3-Chlorophenyl)-2-[1-(2-hydroxyethyl)piperidin-4-ylamino]nicotinamide] | – | – | 7.5*** cells/field |
